In patent US5219884A, “Immunosuppressant” (Taito Co., Ltd., priority 1990, dated 1993):
Read-outs that look alike come from different tables or passages of the source.

Tests used:
[1] = cytotoxicity to tumor cell line MOLT4; format: cell-based, human; details: human, molt4 cells, read-out: Suppression
Method: (§1) Cytotoxicity to human tumor cell lines was examined as follows:
(§2) Cells of human cell lines, K562, MOLT4, U937, HL60, KATOIII, KB, PC-6, PC-14 and CCRF-CEM were separately suspended to the concentration of 2×10^5 cells/ml in the RPMI1640 culture medium supplemented with 20% FCS. Fifty μl of this suspension was added to each well of 96-well microculture plates to which 50 μl of the test solution had been added. After culturing at 37° C. in an atmosphere of 5% carbon dioxide for 72 hours, the absorbancy at 550 nm was measured in the same way as the colorimetry using MTT in Experimental Example 1, and the percent suppression was calculated in the same manner as in Experimental Example 14, which was used as the index of cytotoxicity.

MOLT4 = assay: cytotoxicity to tumor cell line MOLT4; format: cell-based, human
Method: as §1, §2

[2] = system: IL2-dependent mouse cell line CTLL-2; assay: suppression of IL-2 induced 3H-thymidine incorporation of CTLL-2; format: cell-based; details: 72 hrs, second run (control 30168 cpm); for inhibition at 0.1 µg/mL / inhibition at 1 µg/mL: Mus musculus, CTLL-2; for inhibition at 0.1 µg/mL: read-out: Suppression
Method: IL2-dependent mouse cell line CTLL-2 cells were suspended in the RPMI1640 culture medium supplemented with 30% FCS to a concentration of 2×10^5 cells/ml. The suspension (50 μl) and 50 μl of concanavalin A-stimulated rat spleen cell culture supernatants containing IL2 were added to each well of 96-well microculture plates in which 100 μl of the test substance had been placed. After culturing at 37° C. in an atmosphere of 5% carbon dioxide for 20, 44, or 68 hours, 0.5 μCi/well of ^3 H-thymidine was added, and cultured for 4 hours under the same conditions. After termination of the culture, the cells were harvested by a cell harvester, and the radioactivity incorporated into the cells was measured by a liquid scintillation counter.

[3] = cytotoxicity to mouse L929 cells; format: cell-based; details: mouse, l929 cells, read-out: Suppression
Method: (§3) Cytotoxicity to mouse L929 cells was assayed as follows:
(§4) L929 cells were suspended to the concentration of 1.5×10^5 cells/ml in the F12 culture medium supplemented with 10% FCS. One hundred μl of the suspension was added to each well of 96-well microculture plates, and cultured at 37° C. in an atmosphere of 5% carbon dioxide for 24 hours, to which 100 μl of the test solution was added and cultured for further 48 hours. After the culture, 100 μl of the supernatant was removed and the absorbancy at 550 nm was measured in the same way as the colormetry using MTT in Experimental Example 1. The percent suppression was calculated by the following formula used as the index of cytotoxicity. [formula]

mouse L929 cells = assay: cytotoxicity to mouse L929 cells; format: cell-based; details: 550 nm
Method: as §3, §4

CCRF-CEM = assay: in vitro; format: cell-based, human
Method: as §1, §2

PC-14 = assay: in vitro; format: cell-based, human
Method: as §1, §2

in vitro = format: cell-based, human; details: human, read-out: Suppression
Method: as §1, §2

HL60 = assay: in vitro; format: cell-based, human
Method: as §1, §2

K562 = assay: in vitro; format: cell-based, human
Method: as §1, §2

U937 = assay: in vitro; format: cell-based, human
Method: as §1, §2

KB = assay: in vitro; format: cell-based, human
Method: as §1, §2

CCCCCCC(O)CCCCCC/C=C/CC(O)C(O)C(N)(CO)C(=O)O (centres unmarked) [Example 6]
cytotoxicity at 72 h ([1]; 0.1 μg/ml): 0.8% | cytotoxicity at 72 h ([1]; 1.0 μg/ml): 3.4% | cytotoxicity at 72 h ([1]; 10.0 μg/ml): 8.5% | Absorbancy (MOLT4; 0.1 μg/ml): 0.615 | Absorbancy (MOLT4; 1.0 μg/ml): 0.599 | Absorbancy (MOLT4; 10.0 μg/ml): 0.567 | 3H-thymidine uptake ([2]; 0.1 μg/ml): 7237 cpm | 3H-thymidine uptake ([2]; 1 μg/ml): 1346 cpm | inhibition at 0.1 µg/mL ([2]; 0.1 μg/ml): 76.2% | inhibition at 1 µg/mL ([2]; 1 μg/ml): 95.7% | cytotoxicity at 48 h ([3]; 0.1 μg/ml): 0% | cytotoxicity at 48 h ([3]; 1 μg/ml): 0% | cytotoxicity at 48 h ([3]; 10 μg/ml): 0% | Absorbancy (mouse L929 cells; 0.1 μg/ml): 0.732 | Absorbancy (mouse L929 cells; 1 μg/ml): 0.714 | Absorbancy (mouse L929 cells; 10 μg/ml): 0.733 | Absorbancy (CCRF-CEM; 0.1 μg/ml): 0.463 | Absorbancy (CCRF-CEM; 1.0 μg/ml): 0.457 | Absorbancy (CCRF-CEM; 10.0 μg/ml): 0.475 | Absorbancy (PC-14; 0.1 μg/ml): 0.372 | Absorbancy (PC-14; 1.0 μg/ml): 0.405 | Absorbancy (PC-14; 10.0 μg/ml): 0.351 | cytotoxicity at 72 h (in vitro; ccrf-cem cells, 0.1 μg/ml): 8% | cytotoxicity at 72 h (in vitro; ccrf-cem cells, 1.0 μg/ml): 9.1% | cytotoxicity at 72 h (in vitro; ccrf-cem cells, 10.0 μg/ml): 5.6% | cytotoxicity at 72 h (in vitro; hl60 cells, 0.1 μg/ml): 16% | cytotoxicity at 72 h (in vitro; hl60 cells, 1.0 μg/ml): 21% | cytotoxicity at 72 h (in vitro; hl60 cells, 10.0 μg/ml): 17% | cytotoxicity at 72 h (in vitro; k562 cells, 0.1 μg/ml): 1.6% | cytotoxicity at 72 h (in vitro; k562 cells, 1.0 μg/ml): 4.5% | cytotoxicity at 72 h (in vitro; k562 cells, 10.0 μg/ml): 3% | cytotoxicity at 72 h (in vitro; kb cells, 0.1 μg/ml): 0% | cytotoxicity at 72 h (in vitro; kb cells, 1.0 μg/ml): 0.3% | cytotoxicity at 72 h (in vitro; kb cells, 10.0 μg/ml): 3.2% | cytotoxicity at 72 h (in vitro; pc-14 cells, 0.1 μg/ml): 21.5% | cytotoxicity at 72 h (in vitro; pc-14 cells, 1.0 μg/ml): 14.6% | cytotoxicity at 72 h (in vitro; pc-14 cells, 10.0 μg/ml): 25.9% | cytotoxicity at 72 h (in vitro; u937 cells, 0.1 μg/ml): 14% | cytotoxicity at 72 h (in vitro; u937 cells, 1.0 μg/ml): 9.9% | cytotoxicity at 72 h (in vitro; u937 cells, 10.0 μg/ml): 10.1% | Absorbancy (HL60; 0.1 μg/ml): 0.619 | Absorbancy (HL60; 1.0 μg/ml): 0.589 | Absorbancy (HL60; 10.0 μg/ml): 0.627 | Absorbancy (K562; 0.1 μg/ml): 0.823 | Absorbancy (K562; 1.0 μg/ml): 0.798 | Absorbancy (K562; 10.0 μg/ml): 0.811 | Absorbancy (U937; 0.1 μg/ml): 0.439 | Absorbancy (U937; 1.0 μg/ml): 0.436 | Absorbancy (U937; 10.0 μg/ml): 0.435 | Absorbancy (KB; 0.1 μg/ml): 0.771 | Absorbancy (KB; 1.0 μg/ml): 0.728 | Absorbancy (KB; 10.0 μg/ml): 0.707

CCCCCCC(=O)CCCCCCCCCC1OC(=O)C(N)(CO)C1O (centres unmarked) [Example 7]
cytotoxicity at 72 h ([1]; 0.1 μg/ml): 26.2% | cytotoxicity at 72 h ([1]; 1.0 μg/ml): 15.2% | cytotoxicity at 72 h ([1]; 10.0 μg/ml): 31% | Absorbancy (MOLT4; 0.1 μg/ml): 0.107 | Absorbancy (MOLT4; 1.0 μg/ml): 0.123 | Absorbancy (MOLT4; 10.0 μg/ml): 0.100 | 3H-thymidine uptake ([2]; 0.1 μg/ml): 37960 cpm | 3H-thymidine uptake ([2]; 1 μg/ml): 2088 cpm | inhibition at 0.1 µg/mL ([2]; 0.1 μg/ml): 0% | inhibition at 1 µg/mL ([2]; 1 μg/ml): 93.3% | cytotoxicity at 48 h ([3]; 0.1 μg/ml): 0% | cytotoxicity at 48 h ([3]; 1 μg/ml): 0% | cytotoxicity at 48 h ([3]; 10 μg/ml): 0% | Absorbancy (mouse L929 cells; 0.1 μg/ml): 0.799 | Absorbancy (mouse L929 cells; 1 μg/ml): 0.811 | Absorbancy (mouse L929 cells; 10 μg/ml): 0.696 | Absorbancy (CCRF-CEM; 0.1 μg/ml): 0.681 | Absorbancy (CCRF-CEM; 1.0 μg/ml): 0.653 | Absorbancy (CCRF-CEM; 10.0 μg/ml): 0.587 | Absorbancy (PC-14; 0.1 μg/ml): 0.446 | Absorbancy (PC-14; 1.0 μg/ml): 0.424 | Absorbancy (PC-14; 10.0 μg/ml): 0.315 | cytotoxicity at 72 h (in vitro; ccrf-cem cells, 0.1 μg/ml): 1.6% | cytotoxicity at 72 h (in vitro; ccrf-cem cells, 1.0 μg/ml): 5.6% | cytotoxicity at 72 h (in vitro; ccrf-cem cells, 10.0 μg/ml): 15.2% | cytotoxicity at 72 h (in vitro; hl60 cells, 0.1 μg/ml): 17.2% | cytotoxicity at 72 h (in vitro; hl60 cells, 1.0 μg/ml): 18.2% | cytotoxicity at 72 h (in vitro; hl60 cells, 10.0 μg/ml): 18% | cytotoxicity at 72 h (in vitro; k562 cells, 0.1 μg/ml): 0% | cytotoxicity at 72 h (in vitro; k562 cells, 1.0 μg/ml): 13.8% | cytotoxicity at 72 h (in vitro; k562 cells, 10.0 μg/ml): 21.6% | cytotoxicity at 72 h (in vitro; kb cells, 0.1 μg/ml): 0.5% | cytotoxicity at 72 h (in vitro; kb cells, 1.0 μg/ml): 4.8% | cytotoxicity at 72 h (in vitro; kb cells, 10.0 μg/ml): 32.5% | cytotoxicity at 72 h (in vitro; pc-14 cells, 0.1 μg/ml): 5.9% | cytotoxicity at 72 h (in vitro; pc-14 cells, 1.0 μg/ml): 10.5% | cytotoxicity at 72 h (in vitro; pc-14 cells, 10.0 μg/ml): 33.5% | cytotoxicity at 72 h (in vitro; u937 cells, 0.1 μg/ml): 0% | cytotoxicity at 72 h (in vitro; u937 cells, 1.0 μg/ml): 0% | cytotoxicity at 72 h (in vitro; u937 cells, 10.0 μg/ml): 5.5% | Absorbancy (HL60; 0.1 μg/ml): 0.432 | Absorbancy (HL60; 1.0 μg/ml): 0.427 | Absorbancy (HL60; 10.0 μg/ml): 0.428 | Absorbancy (K562; 0.1 μg/ml): 0.387 | Absorbancy (K562; 1.0 μg/ml): 0.332 | Absorbancy (K562; 10.0 μg/ml): 0.302 | Absorbancy (U937; 0.1 μg/ml): 0.588 | Absorbancy (U937; 1.0 μg/ml): 0.593 | Absorbancy (U937; 10.0 μg/ml): 0.551 | Absorbancy (KB; 0.1 μg/ml): 0.726 | Absorbancy (KB; 1.0 μg/ml): 0.695 | Absorbancy (KB; 10.0 μg/ml): 0.493
